Legend:
[1] = system: Chikungunya virus; assay: Antiviral activity against Chikungunya virus 899 infected in African green monkey Vero cells by MTS assay; type: functional, organism-based; details: Chikungunya virus, 899, Vero
[2] = Cytotoxicity against African green monkey Vero cells assessed as reduction in cell viability after 18 hrs by […]; type: cell-based; details: chlorocebus sabaeus
[3] = Selectivity index, ratio of CC50 for African green monkey Vero cells to EC50 for Chikungunya virus 899; type: toxicity; details: read-out: Ratio CC50/EC50

Row | Structure (SMILES) | EC50 [1] [µM] | CC50 at 18 h [2] [µM] | selectivity ratio [3]
1 | Cc1ccc(S(=O)(=O)Oc2ccc3c(CSc4nc5ccccc5c(=O)[nH]4)cc(=O)oc3c2)cc1 | 10.2 | 117 | 11.5
2 | O=c1cc(CSc2nc3ccccc3c(=O)[nH]2)c2ccc(OS(=O)(=O)c3ccccc3)cc2o1 | 19.1 | 178 | 9.3
3 | Cc1ccc2nc(SCc3cc(=O)oc4cc(OS(=O)(=O)c5ccccc5[N+](=O)[O-])ccc34)[nH]c(=O)c2c1 | 19 | 107 | 5.6
4 | O=c1cc(CSc2nc3ccccc3c(=O)[nH]2)c2ccc(OS(=O)(=O)c3ccc(F)cc3)cc2o1 | 18.4 | 30 | 1.6
5 | O=c1cc(CSc2nc3ccccc3c(=O)[nH]2)c2ccc(OS(=O)(=O)c3ccccc3[N+](=O)[O-])cc2o1 | 17.2 | 144 | 8.8
6 | O=C1CCN=C(SCc2cc(=O)oc3cc(OS(=O)(=O)c4ccc(F)cc4)ccc23)N1 | 128 | 111 | –
7 | Cc1ccc(S(=O)(=O)Oc2ccc3c(CSc4nc5ccc(C)cc5c(=O)[nH]4)cc(=O)oc3c2)cc1 | 26.4 | 114 | 4.3
8 | O=c1cc(CSc2nc3ccccc3c(=O)[nH]2)c2ccc(OS(=O)(=O)c3ccc([N+](=O)[O-])cc3)cc2o1 | 54.5 | 117 | 2.2
9 | Cc1ccc(S(=O)(=O)Oc2ccc3c(CSC4=NCCC(=O)N4)cc(=O)oc3c2)cc1 | 23.1 | 60.2 | 2.6
10 | Cc1cnc(SCc2cc(=O)oc3cc(OCc4ccc(F)cc4)ccc23)[nH]c1=O | 45.1 | 104 | 2.3
11 | Cc1ccc2nc(SCc3cc(=O)oc4cc(OS(=O)(=O)c5ccccc5)ccc34)[nH]c(=O)c2c1 | 58 | 126 | 2.2
12 | Cc1ccc2nc(SCc3cc(=O)oc4cc(OS(=O)(=O)c5ccc([N+](=O)[O-])cc5)ccc34)[nH]c(=O)c2c1 | > 199 | – | –
13 | Cc1cnc(SCc2cc(=O)oc3cc(O)ccc23)[nH]c1=O | > 316 | – | –
14 | O=c1ccnc(SCc2cc(=O)oc3cc(OCc4ccccc4)ccc23)[nH]1 | > 255 | – | –
15 | Cc1ccc2nc(SCc3cc(=O)oc4cc(OS(=O)(=O)c5ccc(F)cc5)ccc34)[nH]c(=O)c2c1 | 116 | 86.4 | –
16 | O=C1CCN=C(SCc2cc(=O)oc3cc(OS(=O)(=O)c4ccccc4[N+](=O)[O-])ccc23)N1 | 13 | 75.2 | 5.8
17 | Cc1ccc(COc2ccc3c(CSc4ncc(C)c(=O)[nH]4)cc(=O)oc3c2)cc1 | > 48 | – | –
18 | O=C1CCN=C(SCc2cc(=O)oc3cc(OS(=O)(=O)c4ccccc4)ccc23)N1 | 57.4 | – | –
19 | O=C1CCN=C(SCc2cc(=O)oc3cc(OS(=O)(=O)c4ccc([N+](=O)[O-])cc4)ccc23)N1 | > 205 | – | –
20 | O=c1cc(CSc2nc3ccccc3c(=O)[nH]2)c2ccc(OCc3ccccc3)cc2o1 | > 45.2 | – | –
21 | O=c1cc(CSc2nc(O)c3ccccc3n2)c2ccc(O)cc2o1 | 192 | > 284 | > 1.5
22 | O=c1ccnc(SCc2cc(=O)oc3cc(O)ccc23)[nH]1 | > 331 | – | –
23 | O=c1ccnc(SCc2cc(=O)oc3cc(OCc4ccc([N+](=O)[O-])cc4)ccc23)[nH]1 | 4.6 | 13.8 | 3
24 | Cc1cnc(SCc2cc(=O)oc3cc(OCc4ccccc4)ccc23)[nH]c1=O | > 246 | – | –
25 | Cc1ccc(COc2ccc3c(CSc4nc5ccccc5c(=O)[nH]4)cc(=O)oc3c2)cc1 | > 2.19 | 102 | –

Reference: ChEMBL document CHEMBL4177563, “The medicinal chemistry of Chikungunya virus” (Bioorg Med Chem, 2017)
